{"source": "paper PMC8619914", "about": "“Development of Novel Peptides for the Antimicrobial Combination Therapy against Carbapenem-Resistant Acinetobacter baumannii Infection” (Pharmaceutics, 2021)", "key": {"[1]": {"tested_on": "HaCaT cells", "assay": "Cytotoxicity, WST-8 Cell Proliferation Assay", "type": "cell-based, human", "settings": "at its MIC, 24 h and 48 h", "description": "(§1) Human embryonic kidney (HEK)-293 cells, purchased from Korean cell line bank (Seoul, Korea) were cultured in Dulbecco’s modified Eagle’s medium (DMEM) (Welgene, Gyeong-san, Korea) with 10% fetal bovine serum, 1% penicillin-streptomycin at 37 °C in a humidified 5% CO2 incubator as described previously. The cytotoxicity of the six PapMA peptides and melittin was determined using WST-8 Cell Proliferation Assay Kit (Biomax Co, Ltd., Seoul, Korea), according to the manufacturer’s instructions. […] The absorbance was measured at 450 nm using a SpectraMAX microplate reader (Molecular Devices).\nFigure 10 Cytotoxicity of PapMA-3 (A) Cytotoxicity of PapMA-3 against HEK-293 cells at 24 h and 48 h. (B) Cytotoxicity of PapMA-3 against HaCaT cell at 24 h and 48 h. Statistical analysis was performed using two-way ANOVA with Dunnett’s comparison test. The values are expressed as the mean ± SEM of three independent experiments and are statistically significant at * p < 0.05; *** p < 0.001; ns, not significant."}, "[2]": {"tested_on": "intact CRAB C1", "assay": "Membrane depolarization, diSC3-5, intact cells", "type": "cell-based, carbapenem-resistant Acinetobacter baumannii", "settings": "peptide 4 μg·mL^−1, 100% = 1% triton X-100", "description": "The membrane depolarization activity of each AMPs at varying concentrations (1–16 μg·mL^−^1) against CRAB C1 intact cells were measured using 3,3′-dipropylthiadicarbocyanine iodide (diSC3-5). CRAB C1 was washed two times in washing buffer (5 mM HEPES, 20 mM glucose, pH 7.4), the experiment buffer was changed (5 mM HEPES, 20 mM glucose, 0.1 M KCl, pH 7.4), and diSC3-5 dye was added. As a control, 100% depolarization was obtained by treating CRAB C1 with 1% triton X-100 [33]. Spheroplast cells were prepared by the osmotic shock, as previously described. […] The corresponding fluorescent were measured using RF-6000PC fluorescent spectrophotometer (Shimadzu Scientific Instruments, Kyoto, Japan).\nFigure 3 CRAB C1 membrane destruction caused by PapMA analogs. The concentration dependent depolarization of (A) intact CRAB C1 and its (B) spheroplast induced by PapMA and its analogs, determined using the membrane potential-sensitive fluorescent dye diSC3-5. Dye release was monitored by measuring fluorescence, at an excitation wavelength of 654 nm and an emission wavelength of 670 nm."}, "[3]": {"tested_on": "CRAB C4", "assay": "microbe, parasite or virus in culture", "settings": "MH media, 2 × 10^5 CFU·mL^−1, 37 °C, 16 h, absorbance 600 nm", "excerpt": "(§2) The Gram-negative bacterial strain Escherichia coli (KCTC 1682) and Gram-positive bacterial strain Staphylococcus aureus (KCTC 1621) were purchased from the Korean Collection for Type Cultures (Jeongeup, Korea). Acinetobacter baumannii (KCCM 40203) were purchased from Korea Culture Center of Microorganisms (Seoul, Korea). Additionally, five carbapenem-resistant Acinetobacter baumanii C1–C5 (CRAB C1–C5), which have the OXA-23 gene with carbapenem-resistance were collected from the patients with CRAB bacteremia, who presented symptoms and signs of infection at Korea University Anam Hospital (Seoul, Korea) (IRB registration no. 2020AN0157). The minimum inhibitory concentrations (MIC) of the AMP and antibiotics against the various bacterial strains were assessed using the serial dilution method on Muller–Hinton (MH) media, as described previously. […] Absorbance at 600 nm was measured using a SpectraMAX microplate reader (Molecular Devices, San Jose, CA, USA).\n(§3) Measurement of the minimum inhibitory concentrations (MIC) was conducted to determine the effect of the hydrophobicity of each antimicrobial peptide on its antimicrobial activity. MIC was defined as the minimum concentration that killed more than 99% of bacteria; it was measured against two standard Gram-negative bacteria (E. coli and A. baumanii), five clinically isolated CRAB (C1–C5), and one Gram-positive bacteria (S. aureus)."}, "[4]": {"tested_on": "CRAB C5", "assay": "microbe, parasite or virus in culture", "settings": "MH media, 2 × 10^5 CFU·mL^−1, 37 °C, 16 h, absorbance 600 nm", "excerpt": "as §2, §3"}, "[5]": {"tested_on": "CRAB C2", "assay": "microbe, parasite or virus in culture", "settings": "MH media, 2 × 10^5 CFU·mL^−1, 37 °C, 16 h, absorbance 600 nm", "excerpt": "as §2, §3"}, "[6]": {"tested_on": "CRAB C3", "assay": "microbe, parasite or virus in culture", "settings": "MH media, 2 × 10^5 CFU·mL^−1, 37 °C, 16 h, absorbance 600 nm", "excerpt": "as §2, §3"}, "[7]": {"tested_on": "Acinetobacter baumannii (KCCM 40203)", "assay": "microbe, parasite or virus in culture", "settings": "16 h", "excerpt": "as §2, §3"}, "[8]": {"tested_on": "CRAB C1", "assay": "microbe, parasite or virus in culture", "settings": "16 h", "excerpt": "as §2, §3"}, "[9]": {"tested_on": "CRAB C1", "description": "(§4) Antibacterial activity of PapMA-3 in combination with imipenem was measured against CRAB C1 in the presence of 50% human serum. The treated cells were incubated for 16 h at 37 °C, and the absorbance at 600 nm was measured using a SpectraMAX microplate reader (Molecular Devices)."}, "[10]": {"tested_on": "A. baumannii", "settings": "50% human serum in MH medium, 16 h, 37 °C; measure of serum stability", "description": "as §4"}, "[11]": {"tested_on": "HEK-293 cells", "assay": "Cytotoxicity, WST-8 Cell Proliferation Assay", "type": "cell-based, human", "settings": "at its MIC, 24 h and 48 h", "description": "as §1\nFigure 4 Cytotoxicity of PapMA analogs. (A) Cytotoxicity of PapMA and its analogs against HEK-293 cell. […] (B) Hemolysis activity of PapMA analogs against sRBC. The peptide was serially diluted and incubated with sRBC for 1 h with melittin as a control. Statistical analysis was performed using two-way ANOVA with Dunnett’s comparison test. The values are expressed as the mean ± SEM of three independent experiments and are statistically significant at ** p < 0.01; and *** p < 0.001. ns, not significant."}, "[12]": {"tested_on": "Gram-negative bacterial strains", "assay": "organism not typed", "excerpt": "as §2\nGeometric means (GM) were calculated to compare the relative antimicrobial activities of the analogs against Gram-negative bacteria. […] Next, the antibacterial mechanisms of peptides were investigated."}, "[13]": {"settings": "MH media, 2 × 10^5 CFU·mL^−1, 37 °C, absorbance 600 nm"}}}
{"smiles": "CC[C@H](C)[C@H](NC(=O)CN)C(=O)NCC(=O)N[C@@H](C)C(=O)N[C@H](C(=O)N[C@@H](CC(C)C)C(=O)N[C@@H](CCCCN)C(=O)N[C@H](C(=O)N[C@@H](CC(C)C)C(=O)N[C@H](C(=O)N[C@H](C(=O)NCC(=O)N[C@@H](CC(C)C)C(=O)N1CCC[C@H]1C(=O)N[C@@H](C)C(=O)N[C@@H](CC(C)C)C(=O)N[C@H](C(=O)N[C@@H](CO)C(=O)N[C@@H](Cc1c[nH]c2ccccc12)C(=O)N[C@H](C(=O)N[C@@H](CCCCN)C(=O)N[C@@H](CCCNC(=N)N)C(=O)N[C@@H](CCCCN)C(=O)N[C@@H](CCCNC(=N)N)C(=O)N[C@@H](CCC(N)=O)C(=O)N[C@@H](CCC(N)=O)C(N)=O)[C@@H](C)CC)[C@@H](C)CC)[C@@H](C)O)[C@@H](C)O)C(C)C)C(C)C", "note": "[melittin]", "values": [{"measurement": "toxicity, HaCaT", "setting": "[1]", "value": "severe toxicity"}, {"measurement": "depolarization of intact CRAB C1", "setting": "[2]", "value": 86.4, "unit": "%"}, {"measurement": "Minimum Inhibitory Concentration, CRAB C4", "setting": "[3]", "value": 8, "unit": "µg/mL"}, {"measurement": "Minimum Inhibitory Concentration, CRAB C5", "setting": "[4]", "value": 16, "unit": "µg/mL"}, {"measurement": "Minimum Inhibitory Concentration, CRAB C2", "setting": "[5]", "value": 16, "unit": "µg/mL"}, {"measurement": "Minimum Inhibitory Concentration, CRAB C3", "setting": "[6]", "value": 16, "unit": "µg/mL"}, {"measurement": "Minimum Inhibitory Concentration, A. baumannii, MH Media", "setting": "[7]; MH media without serum, 37 °C", "value": 16, "unit": "µg/mL"}, {"measurement": "Minimum Inhibitory Concentration, A. baumanii", "setting": "[7]; [13]", "value": 16, "unit": "µg/mL"}, {"measurement": "Minimum Inhibitory Concentration, CRAB C1, MH Media", "setting": "[8]; MH media without serum, 37 °C", "value": 16, "unit": "µg/mL"}, {"measurement": "Minimum Inhibitory Concentration, CRAB C1", "setting": "[8]; [13]", "value": 16, "unit": "µg/mL"}, {"measurement": "change of antibacterial activity in the presence of 50% human serum", "setting": "[9]; 50% human serum in MH media versus MH media, E. coli, A. baumannii, CRAB C1", "value": "lost antibacterial activity considerably"}, {"measurement": "Minimum Inhibitory Concentration, CRAB C1, + Serum (50%)", "setting": "[9]; 50% human serum in MH medium, 16 h, 37 °C, measure of serum stability", "value": 256, "unit": "µg/mL"}, {"measurement": "Minimum Inhibitory Concentration, A. baumannii, + Serum (50%)", "setting": "[10]", "value": 128, "unit": "µg/mL"}, {"measurement": "toxicity, HEK-293", "setting": "[11]", "value": "severe toxicity"}, {"measurement": "GM (mean MIC of Gram-negative bacterial strains)", "setting": "[12]", "value": 14, "unit": "mg/L"}]}
